Results: patent US20070093520A1, “Method of treatment of diarrhea-predominant irritable bowel syndrome in a subject” (priority 2005, published 2007)

Tested on: diarrhea-predominant IBS subjects
Assay type: in vivo, human
Conditions: TEAE incidence, 2 mg, Safety Population
Experimental: The study was performed in approximately 150 study centers. Approximately 1600 eligible subjects were to be given cilansetron 2 mg TID. At Visit 1, pre-treatment assessments were conducted. […] Subjects were to return to the study site one month later for Visit 3 (Day 31) for their first interim assessment. […] All subjects who discontinued from the study were to have the same post-study assessments required at Visit 7 performed at their early termination visit. […]
Stool specimens were analyzed at every visit for occult blood. An independent GERB had been established to provide advice on GI AEs during the course of the study.
Adverse events were assessed at Baseline, at each clinic visit, and at the end of the study (Month 12 or the early termination visit). All AEs, which occurred during the study were followed up in accordance with good medical practice until resolved or judged no longer clinically significant, or if a condition was chronic, until fully characterized. Adverse events could occur in the specified follow-up period and, regardless of the interval since the last administration of the study medication, were treated in the same manner as an AE which occurred during the treatment with study medication. Each AE was evaluated for duration, severity, seriousness, and causal relationship to the investigational drug. The action taken and the outcome were also recorded.
Specifically, subjects who were lost to follow-up and had no post-Baseline contact with the site were excluded from the Safety population. The subjects who discontinued from the study due to lost to follow-up were identified based on the information collected on the study termination CRF page.
After the pretreatment assessment at Visit 1 (Days […] to −3), subjects were to return to the study site for a Baseline assessment and start the treatment at Visit 2 (Day 1).
For the by time-interval analyses of disposition, prevalence of AEs, and of markedly abnormal and predefined changes in laboratory values, vital signs, and ECGs, the following interval windows were used:
Adverse events that were already present prior to the first dose of cilansetron study medication but increased in severity afterwards were considered as treatment-emergent.
The 5% cutoff point was based on the incidence within higher level terms.
Subjects were counted at most once for each primary system organ class and preferred term. Serious AEs that resolved prior to receiving study medication or occurred more than 30 days after the last dose of study medication were not included in the incidence tables. A listing of all SAEs is presented; SAEs with onset prior to receiving study medication or more than 30 days after discontinuation of study medication were flagged. The listing presents lower level term and preferred term of the SAE, severity, action taken, outcome, and relationship of the SAE, start and stop date of the SAE, study day of onset of the SAE, age, race, and sex.

## Cc1nccn1C[C@H]1CCc2c(c3cccc4c3n2CCC4)C1=O [cilansetron, (R)-(−)-4,5,6,8,9,10-hexahydro-10-[(2-methyl-1H-imidazol-1-yl)methyl]-11H-pyrido-[3,2,1-jk]-carbazol-11-one]
PT
  Cervical Disc Lesion: 1 (<1%) n (%)
  Chest Discomfort: 1 (<1%) n (%)
  Chest Pain: 12 (<1%) n (%)
  Chromaturia: 1 (<1%) n (%)
  Chronic Obstructive Airways Disease Exacerbated: 1 (<1%) n (%)
  Clavicle Fracture: 1 (<1%) n (%)
  Contusion: 2 (<1%) n (%)
  Coronary Artery Disease NOS: 2 (<1%) n (%)
  Cough: 26 (2%) n (%)
  Cystocele*: 1 (<1%) n (%)
  Dandruff: 1 (<1%) n (%)
  Depressed Mood: 1 (<1%) n (%)
  Depression: 21 (1%) n (%)
  Depression Aggravated: 6 (<1%) n (%)
  Dermatitis Allergic: 11 (<1%) n (%)
  Dermatitis Contact: 1 (<1%) n (%)
  Dermatitis NOS: 2 (<1%) n (%)
  Diabetes Mellitus NOS: 3 (<1%) n (%)
  Diabetes Mellitus Non-Insulin-Dependent: 1 (<1%) n (%)
  Difficulty in Micturition: 2 (<1%) n (%)
  Discoid Lupus Erythematosus: 1 (<1%) n (%)
  Dissociation: 1 (<1%) n (%)
  Distension NOS: 3 (<1%) n (%)
  Dry Skin: 1 (<1%) n (%)
  Dysmenorrhoea*: 2 (<1%) n (%)
  Dyspnoea Exacerbated: 2 (<1%) n (%)
  Dyspnoea NOS: 5 (<1%) n (%)
  Dysuria: 5 (<1%) n (%)
  Eczema: 3 (<1%) n (%)
  Epidermal Cyst: 1 (<1%) n (%)
  Epistaxis: 2 (<1%) n (%)
  Erectile Dysfunction NOS*: 2 (<1%) n (%)
  Erythema: 1 (<1%) n (%)
  Extrasystoles NOS: 2 (<1%) n (%)
  Face Injury: 2 (<1%) n (%)
  Fall: 2 (<1%) n (%)
  Fatigue: 20 (1%) n (%)
  Fear of Falling: 1 (<1%) n (%)
  Fibula Fracture: 1 (<1%) n (%)
  Fluid Retention: 1 (<1%) n (%)
  Food Intolerance NOS: 1 (<1%) n (%)
  Foot Fracture: 2 (<1%) n (%)
  Forearm Fracture: 1 (<1%) n (%)
  Foreign Body in Eye: 1 (<1%) n (%)
  Genital Discharge: 1 (<1%) n (%)
  Genital Pain NOS: 1 (<1%) n (%)
  Glycosuria: 1 (<1%) n (%)
  Gout: 1 (<1%) n (%)
  Groin Pain: 2 (<1%) n (%)
  Gynaecomastia*: 1 (<1%) n (%)
  Haematuria: 2 (<1%) n (%)
  Hand Fracture: 1 (<1%) n (%)
  Hangover: 1 (<1%) n (%)
  Head Injury: 3 (<1%) n (%)
  Heat Rash: 1 (<1%) n (%)
  Hoarseness: 1 (<1%) n (%)
  Hunger: 1 (<1%) n (%)
  Hypercholesterolaemia: 8 (<1%) n (%)
  Hypercholesterolaemia Aggravated: 1 (<1%) n (%)
  Hyperglycaemia NOS: 4 (<1%) n (%)
  Hyperkalaemia: 1 (<1%) n (%)
  Hyperlipidaemia NOS: 3 (<1%) n (%)
  Hypertriglyceridaemia: 8 (<1%) n (%)
  Hypokalaemia: 3 (<1%) n (%)
  Hyponatraemia Aggravated: 1 (<1%) n (%)
  Hypotrichosis: 4 (<1%) n (%)
  Influenza Like Illness: 8 (<1%) n (%)
  Inguinal Mass: 1 (<1%) n (%)
  Injury NOS: 1 (<1%) n (%)
  Insomnia: 20 (1%) n (%)
  Intervertebral Disc Herniation: 2 (<1%) n (%)
  Joint Dislocation: 1 (<1%) n (%)
  Joint Sprain: 3 (<1%) n (%)
  Joint Stiffness: 2 (<1%) n (%)
  Joint Swelling: 2 (<1%) n (%)
  Laceration: 2 (<1%) n (%)
  Laryngitis NOS: 3 (<1%) n (%)
  Lethargy: 1 (<1%) n (%)
  Leukocyturia: 2 (<1%) n (%)
  Libido Decreased: 1 (<1%) n (%)
  Ligament Injury NOS: 4 (<1%) n (%)
  Limb Injury NOS: 8 (<1%) n (%)
  Localised Osteoarthritis: 2 (<1%) n (%)
  Loin Pain: 1 (<1%) n (%)
  Loss of Libido: 1 (<1%) n (%)
  Major Depressive Disorder NOS: 1 (<1%) n (%)
  Malaise: 2 (<1%) n (%)
  Maxillary Sinusitis: 5 (<1%) n (%)
  Menopausal Symptoms*: 1 (<1%) n (%)
  Menorrhagia*: 1 (<1%) n (%)
  Menses Delayed*: 1 (<1%) n (%)
  Mental Disorder NOS: 1 (<1%) n (%)
  Monoarthritis: 2 (<1%) n (%)
  Mood Alteration NOS: 1 (<1%) n (%)
  Mood Swings: 2 (<1%) n (%)
  Muscle Cramps: 6 (<1%) n (%)
  Muscle Injury NOS: 2 (<1%) n (%)
  Muscle Spasms: 2 (<1%) n (%)
  Muscle Strain: 7 (<1%) n (%)
  Muscle Tightness: 1 (<1%) n (%)
  Muscle Twitching: 1 (<1%) n (%)
  Musculoskeletal Chest Pain: 2 (<1%) n (%)
  Musculoskeletal Discomfort: 1 (<1%) n (%)
  Musculoskeletal Pain: 1 (<1%) n (%)
  Myalgia: 11 (<1%) n (%)
  Myocardial Ischaemia: 4 (<1%) n (%)
  Nail Discolouration: 1 (<1%) n (%)
  Nail Disorder NOS: 1 (<1%) n (%)
  Nasal Congestion: 2 (<1%) n (%)
  Nasal Ulcer: 1 (<1%) n (%)
  Neck Injury NOS: 1 (<1%) n (%)
  Neck Pain: 8 (<1%) n (%)
  Neck Stiffness: 1 (<1%) n (%)
  Neurosis NOS: 5 (<1%) n (%)
  Nightmare: 2 (<1%) n (%)
  Nocturia: 1 (<1%) n (%)
  Oedema Peripheral: 1 (<1%) n (%)
  Oligomenorrhoea NOS*: 2 (<1%) n (%)
  Onychoschizia: 1 (<1%) n (%)
  Osteoarthritis Aggravated: 1 (<1%) n (%)
  Osteochondrosis: 1 (<1%) n (%)
  Osteoporosis NOS: 4 (<1%) n (%)
  Ovarian Cyst*: 2 (<1%) n (%)
  Overweight: 1 (<1%) n (%)
  Pain NOS: 5 (<1%) n (%)
  Pain in Limb: 11 (<1%) n (%)
  Palpitations: 5 (<1%) n (%)
  Panic Disorder NOS: 4 (<1%) n (%)
  Peripheral Swelling: 3 (<1%) n (%)
  Pharyngitis: 27 (2%) n (%)
  Pharyngolaryngeal Pain: 2 (<1%) n (%)
  Photodermatosis: 1 (<1%) n (%)
  Polyarthritis: 1 (<1%) n (%)
  Polymenorrhoea*: 1 (<1%) n (%)
  Polymyalgia: 1 (<1%) n (%)
  Polyuria: 2 (<1%) n (%)
  Post Procedural Haemorrhage: 1 (<1%) n (%)
  Post Procedural Pain: 4 (<1%) n (%)
  Postmenopausal Haemorrhage*: 1 (<1%) n (%)
  Postmenopausal Symptoms*: 1 (<1%) n (%)
  Productive Cough: 1 (<1%) n (%)
  Prostatic Pain*: 1 (<1%) n (%)
  Prostatitis*: 3 (<1%) n (%)
  Proteinuria: 2 (<1%) n (%)
  Pruritus Generalised: 2 (<1%) n (%)
  Pruritus NOS: 11 (<1%) n (%)
  Psoriasis: 5 (<1%) n (%)
  Pyoderma: 1 (<1%) n (%)
  Pyrexia: 20 (1%) n (%)
  Radius Fracture: 2 (<1%) n (%)
  Rash Generalised: 3 (<1%) n (%)
  Rash NOS: 10 (<1%) n (%)
  Rash Papular: 1 (<1%) n (%)
  Rash Pruritic: 1 (<1%) n (%)
  Renal Colic: 4 (<1%) n (%)
  Renal Cyst NOS: 1 (<1%) n (%)
  Respiratory Disorder NOS: 1 (<1%) n (%)
  Restlessness: 1 (<1%) n (%)
  Rheumatoid Arthritis: 1 (<1%) n (%)
  Rheumatoid Arthritis Aggravated: 1 (<1%) n (%)
  Rhinitis Allergic NOS: 4 (<1%) n (%)
  Rhinitis NOS: 4 (<1%) n (%)
  Rhinorrhoea: 2 (<1%) n (%)
  Rib Fracture: 2 (<1%) n (%)
  Road Traffic Accident: 1 (<1%) n (%)
  Rosacea: 1 (<1%) n (%)
  Scar: 1 (<1%) n (%)
  Scleroderma: 1 (<1%) n (%)
  Seborrhoea: 1 (<1%) n (%)
  Sensation of Foreign Body NOS: 1 (<1%) n (%)
  Sinus Arrhythmia: 2 (<1%) n (%)
  Sinus Bradycardia: 3 (<1%) n (%)
  Sinus Congestion: 1 (<1%) n (%)
  Sinus Tachycardia: 9 (<1%) n (%)
  Skin Disorder NOS: 1 (<1%) n (%)
  Skin Eruption: 1 (<1%) n (%)
  Skin Inflammation NOS: 1 (<1%) n (%)
  Skin Necrosis: 1 (<1%) n (%)
  Skin Odour Abnormal: 1 (<1%) n (%)
  Skin Ulcer: 1 (<1%) n (%)
  Sleep Disorder NOS: 2 (<1%) n (%)
  Sneezing: 2 (<1%) n (%)
  Snoring: 1 (<1%) n (%)
  Soft Tissue Injury NOS: 1 (<1%) n (%)
  Solar Keratosis: 1 (<1%) n (%)
  Spinal Osteoarthritis: 1 (<1%) n (%)
  Spondylosis: 2 (<1%) n (%)
  Sputum Discoloured: 1 (<1%) n (%)
  Stress Incontinence: 2 (<1%) n (%)
  Stress Symptoms: 8 (<1%) n (%)
  Supraventricular Extrasystoles: 1 (<1%) n (%)
  Sweating Increased: 7 (<1%) n (%)
  Tachycardia NOS: 3 (<1%) n (%)
  Tachycardia Paroxysmal NOS: 1 (<1%) n (%)
  Tendon Injury: 1 (<1%) n (%)
  Tendonitis: 3 (<1%) n (%)
  Thermal Burn: 1 (<1%) n (%)
  Thirst: 1 (<1%) n (%)
  Toe Deformities NOS: 1 (<1%) n (%)
  Tonsillar Hypertrophy: 1 (<1%) n (%)
  Traumatic Chest Injury NOS: 1 (<1%) n (%)
  Upper Respiratory Tract Inflammation: 1 (<1%) n (%)
  Urethral Stricture: 1 (<1%) n (%)
  Urinary Frequency: 5 (<1%) n (%)
  Urinary Incontinence: 4 (<1%) n (%)
  Urinary Incontinence Aggravated: 1 (<1%) n (%)
  Urine Odour Abnormal: 1 (<1%) n (%)
  Urticaria NOS: 4 (<1%) n (%)
  Uterine Cervical Erosion*: 1 (<1%) n (%)
  Uterine Prolapse*: 1 (<1%) n (%)
  Vaginal Prolapse*: 1 (<1%) n (%)
  Ventricular Extrasystoles: 3 (<1%) n (%)
  Ventricular Hypertrophy: 1 (<1%) n (%)
  Vitamin B12 Deficiency: 2 (<1%) n (%)
  Weakness: 14 (<1%) n (%)
  Weight Fluctuation: 1 (<1%) n (%)
  Wheezing: 1 (<1%) n (%)
  Wrist Fracture: 2 (<1%) n (%)
SOC
  Cardiac Disorders: 46 (3%) n (%)
  General Disorders and Administration Site Conditions: 85 (6%) n (%)
  Injury, Poisoning and Procedural Complications: 59 (4%) n (%)
  Metabolism and Nutrition Disorders: 54 (4%) n (%)
  Psychiatric Disorders: 74 (5%) n (%)
  Renal and Urinary Disorders: 40 (3%) n (%)
  Reproductive System and Breast Disorders: 38 (3%) n (%)
  Respiratory, Thoracic and Mediastinal Disorders: 91 (6%) n (%)
  Skin and Subcutaneous Tissue Disorders: 70 (5%) n (%)
